This is an account of results in patent publication US5677274A (The Government of the United States as represented by the …, priority 1993, dated 1997).

The test system of this experiment is CHO cells. It is filed as cell-based, Chinese Hamster.

As for `CC[C@@]1([C@@H]2O[C@@H]([C@H]3O[C@@](O)(CO)[C@H](C)C[C@@H]3C)C[C@@H]2C)CC[C@H]([C@]2(C)CC[C@]3(C[C@H](O)[C@@H](C)[C@@H]([C@@H](C)[C@@H](OC)[C@H](C)C(=O)O)O3)O2)O1` [monensin], the “decrease in potency of FP33” value is recorded as above 100 fold and the “protection against the other three fusion proteins” value is on record as “exceeded 20 fold”.
